The CheMixHub ionic liquid set
± gives the uncertainty stated by the source.

Assay: xn = mol fraction of the nth substance listed

CC(=O)[O-].CC[NH2+]CC + O
Details	electrical conductivity [S/m]	viscosity [mPa·s]
283.15 K, 100.9 kPa, x1 = 0.168	–	27.4 ± 1.5
283.15 K, 100.9 kPa, x1 = 0.24	–	55.1 ± 2.8
283.15 K, 100.9 kPa, x1 = 0.351	–	92.3 ± 4.7
288.15 K, 100.9 kPa, x1 = 0.549	–	105 ± 5.4
295.65 K, 100.9 kPa, x1 = 0.168	–	14.67 ± 0.8
298.15 K, 101 kPa, x1 = 0.0174	2.06 ± 0.062	–
298.15 K, 101 kPa, x1 = 0.0967	2.21 ± 0.066	–
298.15 K, 101 kPa, x1 = 0.199	–	14.82 ± 0.91
298.15 K, 101 kPa, x1 = 0.1997	1.52 ± 0.046	–
298.15 K, 101 kPa, x1 = 0.6989	0.361 ± 0.011	–
298.15 K, 101 kPa, x1 = 0.877	–	57.2 ± 3.7
300.65 K, 100.9 kPa, x1 = 0.168	–	11.78 ± 0.64
303.15 K, 100.9 kPa, x1 = 0.168	2.24 ± 0.23	10.62 ± 0.58
303.15 K, 100.9 kPa, x1 = 0.351	–	30.6 ± 1.5
305.65 K, 100.9 kPa, x1 = 0.24	–	17.47 ± 0.9
310.65 K, 100.9 kPa, x1 = 0.24	–	14.12 ± 0.72
310.65 K, 100.9 kPa, x1 = 0.549	–	32.6 ± 1.6
313.15 K, 100.9 kPa, x1 = 0.549	–	29.2 ± 1.5
315.65 K, 100.9 kPa, x1 = 0.119	–	4.25 ± 0.22
315.65 K, 100.9 kPa, x1 = 0.168	–	6.65 ± 0.36
315.65 K, 100.9 kPa, x1 = 0.714	–	30.1 ± 1.5
318.15 K, 100.9 kPa, x1 = 0.007	2.25 ± 0.39	–
318.15 K, 100.9 kPa, x1 = 0.353	1.34 ± 0.14	–
328.15 K, 100.9 kPa, x1 = 0.015	–	0.728 ± 0.04
328.15 K, 100.9 kPa, x1 = 0.549	–	16.18 ± 0.82
330.65 K, 100.9 kPa, x1 = 0.015	–	0.692 ± 0.038
330.65 K, 100.9 kPa, x1 = 0.055	–	1.339 ± 0.07
330.65 K, 100.9 kPa, x1 = 0.119	–	2.78 ± 0.14
330.65 K, 100.9 kPa, x1 = 0.168	–	4.17 ± 0.22
333.15 K, 100.9 kPa, x1 = 0.007	2.64 ± 0.65	–
333.15 K, 100.9 kPa, x1 = 0.119	–	2.61 ± 0.13
333.15 K, 100.9 kPa, x1 = 0.351	–	9.26 ± 0.47
333.15 K, 100.9 kPa, x1 = 0.55	1.07 ± 0.11	–
333.15 K, 100.9 kPa, x1 = 0.84	–	15.7 ± 0.79
335.65 K, 100.9 kPa, x1 = 0.168	–	3.63 ± 0.19
340.65 K, 100.9 kPa, x1 = 0.168	–	3.19 ± 0.17
343.15 K, 100.9 kPa, x1 = 0.055	–	1.052 ± 0.055
348.15 K, 100.9 kPa, x1 = 0.353	2.81 ± 0.28	–
348.15 K, 100.9 kPa, x1 = 0.55	1.68 ± 0.17	–
348.15 K, 100.9 kPa, x1 = 0.714	1.3 ± 0.13	–
348.15 K, 100.9 kPa, x1 = 0.838	1.11 ± 0.11	–
363.15 K, 100.9 kPa, x1 = 0.168	9.08 ± 0.91	–
363.15 K, 100.9 kPa, x1 = 0.945	1.27 ± 0.13	–

CCO + CCCC[n+]1ccn(C)c1.[Cl-]
Details	viscosity [mPa·s]
303.15 K, 101 kPa, x1 = 1	0.99 ± 0.27

CCO + CC(=O)[O-].CC[n+]1ccn(C)c1
101 kPa, x1 = 1
Details	viscosity [mPa·s]
318.15 K	0.755 ± 0.016
338.15 K	0.543 ± 0.012

CCO + CC[n+]1ccn(C)c1.COS(=O)(=O)[O-]
101 kPa, x2 = 0
Details	viscosity [mPa·s]
283.15 K	1.44 ± 0.07
293.15 K	1.18 ± 0.07
303.15 K	0.98 ± 0.07
313.15 K	0.83 ± 0.07
323.15 K	0.7 ± 0.07

CCO + CCOP(=O)([O-])OCC.CC[N+]1(C)CCCC1
100 kPa, x2 = 0
Details	viscosity [mPa·s]
293.15 K	1.18 ± 0.07
298.15 K	1.11 ± 0.07
303.15 K	0.98 ± 0.06
308.15 K	0.89 ± 0.05
313.15 K	0.82 ± 0.05
318.15 K	0.75 ± 0.05
323.15 K	0.69 ± 0.04
328.15 K	0.65 ± 0.04
333.15 K	0.6 ± 0.04
338.15 K	0.56 ± 0.03

CCCCCCCCCCOS(=O)(=O)[O-].CC[n+]1ccn(C)c1 + O
101 kPa, frequency 0.0005 MHz, x1 = 0.075
Details	electrical conductivity [S/m]
308.15 K	2.87 ± 0.17
363.15 K	6.86 ± 0.41

CCCCn1cc[n+](C)c1.O=S(=O)([N-]S(=O)(=O)C(F)(F)F)c1ccc[cH-]1.[Fe+2].c1cc[cH-]c1 + CCCC[n+]1ccn(C)c1.O=S(=O)([N-]S(=O)(=O)C(F)(F)F)C(F)(F)F
Details	viscosity [mPa·s]
298.15 K, 100 kPa, x2 = 0.749	184.5

CCCCCC[N+]1(C)CCCC1.O=S(=O)([N-]S(=O)(=O)C(F)(F)F)C(F)(F)F + O=S1(=O)CCCC1
101.33 kPa, x1 = 0.5
Details	viscosity [mPa·s]
303.25 K	30.7 ± 6.2
313.25 K	22.1 ± 4.5
323.25 K	16.4 ± 3.3
333.15 K	12.2 ± 2.5
343.15 K	9 ± 1.8
353.15 K	7.2 ± 1.4

CCCC[N+]1(C)CCCC1.F[B-](F)(F)F + CC1COC(=O)O1 + CCCC[N+]1(C)CCCC1.O=S(=O)([N-]S(=O)(=O)C(F)(F)F)C(F)(F)F
293.15 K, 100 kPa, x2 = 0.4706, x3 = 0.05882
Details	electrical conductivity [S/m]	viscosity [mPa·s]
–	0.96 ± 0.06	7.6 ± 1.2

CCCC[N+](CCCC)(CCCC)CCCC.O=[N+]([O-])[O-] + CCCCCCCCCCCCOS(=O)(=O)[O-].[Na+] + O
viscosity [mPa·s], 100 kPa
Details	x2 = 1.81e-06, x1 = 0.0001802	x2 = 3.61e-06, x1 = 0.0001802	x2 = 5.42e-06, x1 = 0.0001802	x2 = 7.23e-06, x1 = 0.0001802	x2 = 9.04e-06, x1 = 0.0001802	x2 = 1.084e-05, x1 = 0.0001802	x2 = 1.265e-05, x1 = 0.0001802	x2 = 1.446e-05, x1 = 0.0001802	x2 = 1.626e-05, x1 = 0.0001802	x2 = 1.807e-05, x1 = 0.0001802
293.15 K	1.012 ± 0.029	1.013 ± 0.029	1.014 ± 0.029	1.014 ± 0.029	1.015 ± 0.029	1.016 ± 0.029	1.017 ± 0.029	1.018 ± 0.029	1.018 ± 0.029	1.018 ± 0.029
298.15 K	0.898 ± 0.028	0.9 ± 0.028	0.901 ± 0.028	0.902 ± 0.028	0.902 ± 0.028	0.903 ± 0.028	0.903 ± 0.028	0.903 ± 0.028	0.904 ± 0.028	0.904 ± 0.028
303.15 K	0.797 ± 0.028	0.798 ± 0.028	0.798 ± 0.028	0.8 ± 0.028	0.8 ± 0.028	0.801 ± 0.028	0.801 ± 0.028	0.801 ± 0.028	0.801 ± 0.028	0.801 ± 0.028
308.15 K	0.709 ± 0.027	0.71 ± 0.027	0.712 ± 0.027	0.713 ± 0.027	0.713 ± 0.027	0.713 ± 0.027	0.713 ± 0.027	0.714 ± 0.027	0.714 ± 0.027	0.714 ± 0.027
313.15 K	0.643 ± 0.027	0.644 ± 0.027	0.644 ± 0.027	0.644 ± 0.027	0.645 ± 0.027	0.645 ± 0.027	0.645 ± 0.027	0.645 ± 0.027	0.645 ± 0.027	0.646 ± 0.027
318.15 K	0.597 ± 0.027	0.597 ± 0.027	0.597 ± 0.027	0.598 ± 0.027	0.598 ± 0.027	0.598 ± 0.027	0.598 ± 0.027	0.598 ± 0.027	0.599 ± 0.027	0.599 ± 0.027
